# Experimental data published in publication PMC5026937 (Antiviral research, 2016).
# System: A/Switzerland/9715293/2013 (H3N2)
# Assay type: cell-based, Influenza A virus
compound,measurement,value
"CCC(CC)O[C@@H]1C=C(C(=O)O)C[C@H](N)[C@H]1NC(C)=O [Oseltamivir carboxylate, oseltamivir carboxylate]",EC50 increase on serial passage,more than ten-fold
